We go through 1 molecule from paper PMC8327344, “Regulation of a pentameric ligand-gated ion channel by a semiconserved cationic lipid-binding site” (The Journal of Biological Chemistry, 2021).

The test system of assay [1] is α1β2 εF260E mutant GABAAR. Nature of the assay: Two electrode voltage clamp recordings from Xenopus oocytes. Format: cell-based, human. The settings on record: ε F260E compared with WT.
Experimental: Mutations were engineered with a QuikChange strategy and confirmed by sequencing. For functional expression of GABAAR containing an ε subunit, the mRNAs encoding for the human α1 (NP_000797.2), β2 (NP_068711.1) and ε subunits were mixed in a 1:1:0.1 ratio in nuclease-free distilled water at a concentration of 0.4 μg/μl (n.b. the definitive stoichiometry of the expressed receptors was not determined). […] Injection of 2 ng of mRNA per oocyte was done using the automated injection system Roboinject (Multi Channel Systems). Oocytes were incubated at 18 °C for 2 to 5 days prior to conducting the electrophysiological recordings using the two electrode automated voltage clamp system (HiClamp apparatus, Multi Channel Systems). […] Data acquired with the HiClamp were analyzed using the manufacturer’s software (Multi Channel Systems). Concentration–activation curves were fitted with the empirical Hill equation. Data are presented as the mean ± standard deviation (SD). Statistical comparison between WT and mutants was done with an unpaired, two-tailed t test with Welch’s correction for unequal sample size and variance.
Assay [2] relates to ELIC with fluorinated Trp at W206. Nature of the assay: Two-electrode voltage clamp of oocytes, noncanonical fluorinated Trp (FW, F2W, F3W) at position 206. It is filed as cell-based, D. didantii. Conditions: F3W at position 206, compared with WT. The procedure:
Site-directed mutagenesis was performed using the QuikChange strategy (Stratagene) using ELIC in pGEM-HE. Mutations were confirmed by sequencing. For noncanonical amino acid mutants, the site of interest was mutated to the TAG stop codon. Plasmids were linearized and receptor mRNA prepared by in vitro runoff transcription using the Ambion T7 mMessage mMachine kit. Noncanonical amino acids ligated to tRNA were prepared as previously described ([56]).
Stage V-VI oocytes of Xenopus laevis were harvested and injected with mRNAs as described previously. For experiments with WT channels and conventional mutants, each cell received a single injection of 10 to 25 ng of receptor mRNA approximately 24 h before recording. For nonsense suppression experiments, each cell was injected with 50 to 100 ng each of receptor mRNA and appropriate tRNA approximately 48 h before recording. Injection volumes for each injection session were 50 to 100 nl per cell.
Two-electrode voltage clamping of Xenopus oocytes was performed using an OpusXpress system (Axon Instruments, Inc). All experiments were performed at 22 to 25 °C. […] The holding potential was −60 mV unless otherwise specified. Concentration–response curves and parameters were obtained using Prism software (GraphPad, PRISM).
In general terms: Two-electrode voltage clamp is typically applied to oocytes expressing channels or transporters.

Assay [3] concerns the target T1, ELIC W206A (Dickeya chrysanthemi, UniProt P0C7B7, INS163G/W205A).
T1 construct: expressed in transfected cells; host or cells: HEK293
Nature of the assay: FlexStation membrane potential dye assay, GABA-elicited responses. Format: cell-based, D. didantii. Conditions: HEK293 cells, up to 100 mM GABA. The procedure: (§1) These methods were similar to those previously described ([55]). Briefly, ELIC cDNA was transfected into HEK293 cells, and these were then grown for 2 to 3 days in a 96-well plate. Then blue fluorescent membrane potential dye (Molecular Devices Ltd) diluted in Flex buffer (10 mM HEPES, 115 mM NaCl, 1 mM KCl, 1 mM CaCl2, 1 mM MgCl2, 10 mM glucose, pH 7.4) was added to each well. After incubation at 37 °C for 30 min, plates were placed in a FlexStation (Molecular Devices Ltd) and fluorescence measured every 2 s for 120 s. […] Concentration–response data were fitted to the four-parameter logistic equation, F = Fmin + (Fmax − Fmin)/(1 + 10^log(EC50-[A])∗^nH), where [A] is the concentration of agonist, nH is the Hill coefficient, and Fmax and Fmin are the maximal and minimal fluorescence levels for each dataset, using Prism software (GraphPad). WT and mutant responses were compared using an ANOVA test followed by Dunnett’s multiple comparison test.

The test system of assay [4] is ELIC W206Y. The description is as above. Format: cell-based, D. didantii. The settings on record: HEK293 cells. Here is the method:
as §1

Assay [5] relates to wild-type (WT) ELIC. The assay is described as above. It is filed as cell-based, D. didantii. Conditions: HEK293 cells transfected with WT ELIC. Here is the method:
as §1

For assay [6], the target named is T2, ELIC W206F (Dickeya chrysanthemi, UniProt P0C7B7, INS163G/W205F).
T2 construct: expressed in transfected cells; host or cells: HEK293
The description is as above. Format: cell-based, D. didantii. The settings on record: HEK293 cells, n = 4. The procedure: as §1

For the molecule `NCCCC(=O)O` [GABA], in assay [1], the “decrease of apparent GABA affinity” value is listed as “threefold”. Also, the “change of EC50-values” in assay [2] was “increased EC50-values”. Besides, the GABA-elicited response result in assay [3] is given as “no response”. Also, the maximal response in assay [4] is on record as ~60 % of WT. This molecule returned a Hill coefficient in assay [5] of 2.2 ± 1.4. For the same molecule, in assay [6], the half-maximal effective concentration (EC50) amounted to 2000 µM and the negative-log EC50 (pEC50) stood at 2.694 ± 0.08.

For orientation: Hill coefficient means a measure of the steepness of the concentration-response curve. Broadly, the EC50 is the concentration at which the effect is half-maximal. Usually pEC50 stands for the negative decadic logarithm of the EC50, by convention in mol/L. A high value points to a low EC50.
